Results published in ChEMBL document CHEMBL1201862, “PubChem BioAssay data set” (2004).
The source made the active and inactive calls.

What was measured:
[1] = target: Melanocortin receptor 4 (Homo sapiens, UniProt P32245); type: functional, cell-based;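 also: Cell-based assay with luminescence read-out, confirmatory dose-response testing for agonist activity of biased ligands at MC4R; human U2OS cells with tagged receptor and beta-arrestin; potency of agonists that increase receptor coupling to beta-arrestin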
[2] = microbe, parasite or virus in culture; type: functional; details: Mycobacterium tuberculosis
[3] = target: Protein Wnt-3a (Mus musculus, UniProt P27467); assay: antagonism of Wnt3a pathway luciferase reporter – Wnt-LIGHT cells, luminescence, selectivity assay for Gli-SUFU antagonist project, dose response (AID 651570); type: functional; details: read-out: IC50_Mean;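 also: Wnt-LIGHT reporter cells stimulated with conditioned medium from Wnt3a-producing cells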
[4] = target: T1, Low molecular weight phosphotyrosine protein phosphatase (Homo sapiens, UniProt P24666); type: functional; details: read-out: IC50_Mean
T1 sequence (P24666 whole entry): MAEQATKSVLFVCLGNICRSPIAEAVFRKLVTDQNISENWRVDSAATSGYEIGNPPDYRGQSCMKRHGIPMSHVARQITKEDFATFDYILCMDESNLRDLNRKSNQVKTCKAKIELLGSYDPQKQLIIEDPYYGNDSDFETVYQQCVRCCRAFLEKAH

[5] = target: T1, Low molecular weight phosphotyrosine protein phosphatase; type: functional; details: read-out: IC50_Mean; remark: listed apart in the source
[6] = target: T2, Tyrosine-protein phosphatase non-receptor type 22 (Homo sapiens, UniProt Q9Y2R2); assay: PTPN22 enzyme inhibitors – biochemical, fluorescence, LYP catalytic domain, selectivity assay for LMPTP inhibitor project, dose response (AID 652006); type: functional; details: read-out: IC50_Mean
T2 sequence (Q9Y2R2 whole entry): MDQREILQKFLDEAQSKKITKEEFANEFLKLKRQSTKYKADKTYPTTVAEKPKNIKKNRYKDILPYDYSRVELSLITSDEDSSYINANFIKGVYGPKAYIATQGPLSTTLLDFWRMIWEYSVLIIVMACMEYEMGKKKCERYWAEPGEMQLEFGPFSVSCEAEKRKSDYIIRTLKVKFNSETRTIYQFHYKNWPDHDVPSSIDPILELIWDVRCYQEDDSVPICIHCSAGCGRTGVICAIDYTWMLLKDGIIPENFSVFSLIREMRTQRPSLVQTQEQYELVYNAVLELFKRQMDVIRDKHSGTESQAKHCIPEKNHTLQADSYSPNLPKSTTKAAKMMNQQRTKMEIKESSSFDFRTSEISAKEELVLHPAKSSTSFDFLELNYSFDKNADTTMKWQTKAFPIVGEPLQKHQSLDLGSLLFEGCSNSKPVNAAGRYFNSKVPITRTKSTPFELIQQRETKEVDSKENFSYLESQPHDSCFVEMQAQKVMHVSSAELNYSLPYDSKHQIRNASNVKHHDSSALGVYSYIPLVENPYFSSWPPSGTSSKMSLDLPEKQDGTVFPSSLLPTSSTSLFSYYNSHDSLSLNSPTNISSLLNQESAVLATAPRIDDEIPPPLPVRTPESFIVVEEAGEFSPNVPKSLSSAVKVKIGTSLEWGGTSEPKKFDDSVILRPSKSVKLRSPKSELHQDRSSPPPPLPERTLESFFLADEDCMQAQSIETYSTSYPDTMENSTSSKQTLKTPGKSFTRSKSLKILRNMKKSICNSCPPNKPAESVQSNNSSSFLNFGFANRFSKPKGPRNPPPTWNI

[7] = target: T3, Carboxy-terminal domain RNA polymerase II polypeptide A small phosphatase 1 (Homo sapiens, UniProt Q9GZU7); assay: CTDSP1 inhibitors, concentration-response, biochemical, absorbance readout, ultra-high-throughput screen actives (AID 540297); type: functional
T3 sequence (Q9GZU7 whole entry): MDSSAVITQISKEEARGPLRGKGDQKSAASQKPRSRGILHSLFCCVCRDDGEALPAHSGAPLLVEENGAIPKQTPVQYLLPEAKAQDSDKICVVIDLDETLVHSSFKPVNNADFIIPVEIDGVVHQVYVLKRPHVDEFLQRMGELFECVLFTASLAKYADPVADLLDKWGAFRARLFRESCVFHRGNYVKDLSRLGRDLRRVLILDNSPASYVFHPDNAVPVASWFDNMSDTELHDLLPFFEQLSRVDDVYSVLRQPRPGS

[8] = target: Cytochrome P450 2C9 (Homo sapiens, UniProt P11712)
[9] = target: Cytochrome P450 2C19 (Homo sapiens, UniProt P33261); assay: Cytochrome panel assay with activity outcomes. Panel member name: p450-cyp2c19 Compounds with AC50 equal or less than 10 uM are considered active; type: functional; details: read-out: AC50
[10] = target: 72 kDa type IV collagenase (Homo sapiens, UniProt P08253); assay: Dose Response validation of uHTS RPN11 inhibitor hits using a MMP-2 Fluorescence assay.; type: functional
[11] = system: Streptococcus; assay: GAS UMAA2166 growth inhibition – luminescence, BacTiterGlo, counter-screen for streptokinase expression inhibitor project, dose response (AID 1915); type: functional, organism-based;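 also: potency for reduction of bacterial viability or growth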
[12] = target: Prothrombin (Bos taurus, UniProt P00735); assay: thrombin protease inhibitors – biochemical, fluorescence polarization, uHTS hits, dose response (AID 602369); type: functional
[13] = system: Streptococcus sp. 'group A'; assay: Streptococcus pyogenes SK(-)GAS viability under kanamycin – luminescence, BacTiterGlo, confirmation, counter-screen for streptokinase expression inhibitor project, dose response (AID 1900); type: functional, organism-based
[14] = target: 26S proteasome non-ATPase regulatory subunit 14 (Homo sapiens, UniProt O00487); assay: inhibition of proteasome subunit RPN11 – biochemical, fluorescence polarization, uHTS hits, confirmation (AID 602368); type: functional
[15] = target: Potassium voltage-gated channel subfamily KQT member 2 (Rattus norvegicus, UniProt O88943); assay: blockers of KCNQ2 channel current – cell-based, automated electrophysiology, set II, rat KCNQ2, dose response (AID 588637); type: functional
[16] = target: Ras and Rab interactor 1/Tyrosine-protein kinase ABL1 (Homo sapiens, UniProt P00519+Q13671); type: functional;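 also: biochemical TR-FRET dose-response test measuring inhibition of binding between Rin1 and Abl proteins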
[17] = target: T4, DNA dC->dU-editing enzyme APOBEC-3A (Homo sapiens, UniProt P31941); assay: SAR analysis of small molecule inhibitors of APOBEC3A DNA Deaminase via a fluorescence-based single-stranded DNA deaminase assay - Set 2.; type: functional; details: read-out: IC50_Mean
[18] = target: T4, DNA dC->dU-editing enzyme APOBEC-3A; assay: Dose Response confirmation of small molecule APOBEC3A DNA Deaminase Inhibitors via a fluorescence-based single-stranded DNA deaminase assay. [Related pubchem assays (depositor defined):AID493011, AID493024]; type: functional
[19] = target: T5, DNA dC->dU-editing enzyme APOBEC-3G (Homo sapiens, UniProt Q9HC16); type: functional
[20] = target: T5, DNA dC->dU-editing enzyme APOBEC-3G; assay: inhibition of APOBEC3G ssDNA deamination – biochemical, fluorescence, single-stranded DNA substrate, SAR follow-up (AID 602136); type: functional; details: read-out: IC50_Mean
[21] = target: T4, DNA dC->dU-editing enzyme APOBEC-3A; assay: SAR analysis of small molecule inhibitors of APOBEC3A DNA Deaminase via a fluorescence-based single-stranded DNA deaminase assay.; type: functional; details: read-out: IC50_Mean
[22] = target: T5, DNA dC->dU-editing enzyme APOBEC-3G; assay: SAR analysis of small molecule inhibitors of APOBEC3G DNA Deaminase via a fluorescence-based single-stranded DNA deaminase assay - Set 2.; type: functional; details: read-out: IC50_Mean

T5 sequence (Q9HC16 whole entry): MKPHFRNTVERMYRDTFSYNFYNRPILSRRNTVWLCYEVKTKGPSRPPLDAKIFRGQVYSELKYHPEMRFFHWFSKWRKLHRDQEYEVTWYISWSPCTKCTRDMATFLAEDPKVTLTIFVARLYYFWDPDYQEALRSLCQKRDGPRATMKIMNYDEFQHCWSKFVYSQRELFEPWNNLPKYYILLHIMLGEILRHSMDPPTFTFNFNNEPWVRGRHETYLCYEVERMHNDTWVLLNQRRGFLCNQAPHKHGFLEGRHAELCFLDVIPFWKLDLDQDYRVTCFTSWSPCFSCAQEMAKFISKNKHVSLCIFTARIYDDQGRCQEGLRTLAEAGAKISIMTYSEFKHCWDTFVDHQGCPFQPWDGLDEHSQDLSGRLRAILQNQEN
T4 sequence (P31941 whole entry): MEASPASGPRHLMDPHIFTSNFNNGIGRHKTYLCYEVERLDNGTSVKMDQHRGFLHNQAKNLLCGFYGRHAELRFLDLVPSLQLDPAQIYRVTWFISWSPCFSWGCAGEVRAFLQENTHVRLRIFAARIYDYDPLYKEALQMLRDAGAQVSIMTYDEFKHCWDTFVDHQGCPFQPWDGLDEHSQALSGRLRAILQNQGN
Chain of Melanocortin receptor 4 (P32245 whole entry): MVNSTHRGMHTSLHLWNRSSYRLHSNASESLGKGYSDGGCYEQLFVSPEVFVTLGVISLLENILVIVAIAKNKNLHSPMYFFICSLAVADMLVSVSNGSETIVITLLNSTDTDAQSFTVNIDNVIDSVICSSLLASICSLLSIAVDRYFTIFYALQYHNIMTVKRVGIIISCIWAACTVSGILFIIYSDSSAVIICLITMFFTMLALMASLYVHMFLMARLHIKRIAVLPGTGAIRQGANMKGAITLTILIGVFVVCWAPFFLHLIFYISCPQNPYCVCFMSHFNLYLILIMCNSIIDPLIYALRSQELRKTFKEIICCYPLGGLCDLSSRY
Chain of Ras and Rab interactor 1/Tyrosine-protein kinase ABL1 (P00519 whole entry): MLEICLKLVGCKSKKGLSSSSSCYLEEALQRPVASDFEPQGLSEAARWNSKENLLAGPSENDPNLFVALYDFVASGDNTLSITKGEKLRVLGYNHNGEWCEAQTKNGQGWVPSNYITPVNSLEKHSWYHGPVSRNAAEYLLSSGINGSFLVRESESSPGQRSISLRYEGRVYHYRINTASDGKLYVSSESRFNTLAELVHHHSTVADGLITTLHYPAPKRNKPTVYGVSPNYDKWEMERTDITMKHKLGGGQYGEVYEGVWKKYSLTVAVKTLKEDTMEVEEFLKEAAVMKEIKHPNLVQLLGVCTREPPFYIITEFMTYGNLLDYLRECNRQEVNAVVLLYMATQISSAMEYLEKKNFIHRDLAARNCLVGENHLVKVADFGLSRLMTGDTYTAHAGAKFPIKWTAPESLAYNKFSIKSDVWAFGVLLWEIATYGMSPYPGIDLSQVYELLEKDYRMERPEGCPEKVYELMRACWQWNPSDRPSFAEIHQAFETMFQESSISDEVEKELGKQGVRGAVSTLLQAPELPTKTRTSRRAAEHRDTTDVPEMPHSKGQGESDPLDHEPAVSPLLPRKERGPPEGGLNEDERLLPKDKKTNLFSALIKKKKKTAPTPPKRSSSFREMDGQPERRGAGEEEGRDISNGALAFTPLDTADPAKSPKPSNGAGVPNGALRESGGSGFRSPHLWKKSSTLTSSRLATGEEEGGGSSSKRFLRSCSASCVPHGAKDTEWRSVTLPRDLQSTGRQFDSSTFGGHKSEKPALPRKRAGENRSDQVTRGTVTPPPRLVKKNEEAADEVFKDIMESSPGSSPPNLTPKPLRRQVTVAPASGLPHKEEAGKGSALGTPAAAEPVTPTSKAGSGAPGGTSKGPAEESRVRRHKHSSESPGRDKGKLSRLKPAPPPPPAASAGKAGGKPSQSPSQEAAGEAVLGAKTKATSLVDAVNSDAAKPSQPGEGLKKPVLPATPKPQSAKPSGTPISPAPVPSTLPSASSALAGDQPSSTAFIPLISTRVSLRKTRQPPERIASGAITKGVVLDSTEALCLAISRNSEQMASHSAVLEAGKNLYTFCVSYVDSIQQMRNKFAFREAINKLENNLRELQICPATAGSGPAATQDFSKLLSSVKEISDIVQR
Chain of Ras and Rab interactor 1/Tyrosine-protein kinase ABL1 (Q13671 whole entry): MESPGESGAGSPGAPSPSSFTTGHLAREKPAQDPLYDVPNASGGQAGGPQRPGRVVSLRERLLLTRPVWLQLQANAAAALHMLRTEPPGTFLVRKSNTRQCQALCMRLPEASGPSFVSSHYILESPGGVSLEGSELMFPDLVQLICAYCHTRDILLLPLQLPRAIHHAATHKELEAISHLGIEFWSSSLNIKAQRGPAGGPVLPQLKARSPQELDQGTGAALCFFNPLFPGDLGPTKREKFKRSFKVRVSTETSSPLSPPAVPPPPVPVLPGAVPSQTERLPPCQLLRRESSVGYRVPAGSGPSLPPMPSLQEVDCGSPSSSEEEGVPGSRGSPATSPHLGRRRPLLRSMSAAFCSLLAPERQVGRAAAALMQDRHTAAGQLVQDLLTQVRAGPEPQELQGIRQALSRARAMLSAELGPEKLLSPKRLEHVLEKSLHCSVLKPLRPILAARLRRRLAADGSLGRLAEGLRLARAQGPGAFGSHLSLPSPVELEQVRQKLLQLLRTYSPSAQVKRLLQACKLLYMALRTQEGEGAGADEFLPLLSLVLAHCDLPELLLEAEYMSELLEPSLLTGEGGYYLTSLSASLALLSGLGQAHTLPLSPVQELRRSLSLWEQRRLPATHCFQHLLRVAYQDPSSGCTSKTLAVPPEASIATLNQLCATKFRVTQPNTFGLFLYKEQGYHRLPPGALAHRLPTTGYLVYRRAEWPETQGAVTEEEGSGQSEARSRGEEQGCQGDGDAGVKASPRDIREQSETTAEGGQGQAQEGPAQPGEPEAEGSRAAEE
Chain of Potassium voltage-gated channel subfamily KQT member 2 (O88943 whole entry): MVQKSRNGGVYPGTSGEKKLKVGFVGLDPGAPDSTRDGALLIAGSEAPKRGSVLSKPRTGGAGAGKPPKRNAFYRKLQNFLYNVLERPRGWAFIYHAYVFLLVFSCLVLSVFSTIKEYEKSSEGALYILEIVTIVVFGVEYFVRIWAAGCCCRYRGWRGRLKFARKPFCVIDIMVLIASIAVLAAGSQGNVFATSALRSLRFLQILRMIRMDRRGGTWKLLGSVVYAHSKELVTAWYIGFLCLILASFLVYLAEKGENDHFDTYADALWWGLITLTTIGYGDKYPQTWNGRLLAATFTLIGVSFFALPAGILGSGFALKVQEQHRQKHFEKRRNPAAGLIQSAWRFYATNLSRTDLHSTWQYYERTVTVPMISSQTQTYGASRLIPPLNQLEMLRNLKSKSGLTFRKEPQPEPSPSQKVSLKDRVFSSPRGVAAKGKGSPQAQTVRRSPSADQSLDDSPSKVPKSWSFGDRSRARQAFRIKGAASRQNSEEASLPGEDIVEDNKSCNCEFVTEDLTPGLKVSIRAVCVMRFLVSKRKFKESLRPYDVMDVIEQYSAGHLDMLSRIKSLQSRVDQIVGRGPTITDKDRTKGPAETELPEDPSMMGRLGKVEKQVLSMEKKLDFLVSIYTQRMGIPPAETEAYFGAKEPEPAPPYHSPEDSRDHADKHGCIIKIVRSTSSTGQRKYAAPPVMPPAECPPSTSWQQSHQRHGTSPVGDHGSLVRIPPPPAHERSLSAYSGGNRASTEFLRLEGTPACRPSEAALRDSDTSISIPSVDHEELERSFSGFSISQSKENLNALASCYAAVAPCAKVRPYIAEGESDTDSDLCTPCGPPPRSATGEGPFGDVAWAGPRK
Chain of Cytochrome P450 2C9 (P11712 whole entry): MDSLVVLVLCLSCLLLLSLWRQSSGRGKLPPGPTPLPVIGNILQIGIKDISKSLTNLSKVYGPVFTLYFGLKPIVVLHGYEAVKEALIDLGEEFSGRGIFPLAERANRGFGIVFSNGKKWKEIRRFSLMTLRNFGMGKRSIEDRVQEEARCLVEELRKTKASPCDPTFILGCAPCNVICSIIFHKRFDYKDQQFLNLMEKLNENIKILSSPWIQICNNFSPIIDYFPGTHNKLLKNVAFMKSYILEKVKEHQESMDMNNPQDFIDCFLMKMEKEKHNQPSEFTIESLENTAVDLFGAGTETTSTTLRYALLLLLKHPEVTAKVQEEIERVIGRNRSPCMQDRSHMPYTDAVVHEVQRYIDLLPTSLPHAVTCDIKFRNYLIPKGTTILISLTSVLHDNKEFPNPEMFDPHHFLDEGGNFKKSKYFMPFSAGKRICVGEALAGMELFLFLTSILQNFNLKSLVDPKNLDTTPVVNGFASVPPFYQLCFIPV
Chain of 72 kDa type IV collagenase (P08253 whole entry): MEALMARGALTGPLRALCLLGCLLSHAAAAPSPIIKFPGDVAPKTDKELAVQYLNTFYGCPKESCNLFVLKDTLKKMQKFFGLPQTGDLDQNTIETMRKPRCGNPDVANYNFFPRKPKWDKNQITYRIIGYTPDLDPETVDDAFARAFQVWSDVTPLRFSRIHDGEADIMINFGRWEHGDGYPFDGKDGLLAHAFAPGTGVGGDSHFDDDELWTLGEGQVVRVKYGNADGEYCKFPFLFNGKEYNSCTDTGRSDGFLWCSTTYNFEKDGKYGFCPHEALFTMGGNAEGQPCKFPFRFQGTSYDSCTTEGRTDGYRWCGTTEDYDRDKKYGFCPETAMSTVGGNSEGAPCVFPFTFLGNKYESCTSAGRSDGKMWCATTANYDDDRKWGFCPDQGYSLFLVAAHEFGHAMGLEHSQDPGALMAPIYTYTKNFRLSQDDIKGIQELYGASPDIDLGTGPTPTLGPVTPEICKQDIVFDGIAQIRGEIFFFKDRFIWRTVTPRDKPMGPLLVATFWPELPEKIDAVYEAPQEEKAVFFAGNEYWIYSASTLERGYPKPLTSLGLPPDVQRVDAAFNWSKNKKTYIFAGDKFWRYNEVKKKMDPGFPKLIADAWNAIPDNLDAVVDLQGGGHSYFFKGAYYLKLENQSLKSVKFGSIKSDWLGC

With `COC(=O)c1c(NC(=O)CC2SC(N)=NC2=O)sc2c1CCC(C(C)(C)C)C2` (configuration not stated) the EC50 [1] was > 89.2 µM (inactive) and the CC50 [2] was > 40 µM (active).
For `COc1ccc(NS(=O)(=O)c2ccc(N3CCN(CCO)CC3)c([N+](=O)[O-])c2)cc1`, the IC50 [3] was 0.83 µM (active).
For `O=C(NNC(=O)c1cc2cc3ccccc3nc2s1)c1cccc(Cl)c1`, the IC50 [4] was 10.7 µM (active), the IC50 [5] was 8.67 µM (active) and the IC50 [6] was 26.8 µM (inactive). For the same molecule, the IC50 [7] was 1.9 µM (active), the AC50 [8] was 1.41 µM (inconclusive) and the AC50 [9] was 5.01 µM (inconclusive).
In the case of `CC(C)c1ccc(N2C(=O)/C(=C/NNC(=O)c3ccccc3O)C(=O)NC2=S)cc1`, the IC50 [10] is reported as 45.2 µM (active), the EC50 [11] is reported as 7.21 µM (active) and the IC50 [12] is reported as 48.4 µM (active). The EC50 [13] was 7.63 µM (active) and the IC50 [14] was 52.9 µM (active).
In the case of `O=C(CSc1nc2ccccc2c(=O)n1NC(=O)c1ccccc1)c1ccccc1`, the IC50 [15] is reported as 0.513 µM (active).
With `Cn1c(=O)[nH]c(=O)c2c1nc(NCc1ccco1)n2Cc1ccccc1Cl` the IC50 [16] was > 73.4 µM (inactive).
For `CC(C)(C)NC(=O)CSc1nc2ccc(NC(=O)CSc3nnc(N)s3)cc2s1`, the IC50 [17] was > 99 µM (inactive), the IC50 [18] was 3.87 µM (active) and the IC50 [19] was 18.4 µM (active). The IC50 [20] was 6.68 µM (active), the IC50 [21] was 17.1 µM (inactive) and the IC50 [22] was 1.54 µM (active).
